# Data published in PubChem BioAssay AID463098 (The Scripps Research Institute Molecular Screening Center, 2010).
# Activity calls are given as the source filed them.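 How the source made its calls: active means compounds that block at least 90% of GSTO1 probe labeling in cell lysate; inactive means the rest.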
# Target: Glutathione S-transferase omega-1 (Homo sapiens) (UniProt P78417)
# Assay: native GSTO1 blockade in soluble lysate – cell lysate, MDA-MB-435 proteome, gel ABPP, SE-Rh, percent inhibition, late-stage follow-up (AID 463098)
# Conditions: gel ABPP SE-Rh fluorescence, at 1 µM, stronger effect = higher value
# Chain of Glutathione S-transferase omega-1 (Homo sapiens) (P78417 whole entry, looked up): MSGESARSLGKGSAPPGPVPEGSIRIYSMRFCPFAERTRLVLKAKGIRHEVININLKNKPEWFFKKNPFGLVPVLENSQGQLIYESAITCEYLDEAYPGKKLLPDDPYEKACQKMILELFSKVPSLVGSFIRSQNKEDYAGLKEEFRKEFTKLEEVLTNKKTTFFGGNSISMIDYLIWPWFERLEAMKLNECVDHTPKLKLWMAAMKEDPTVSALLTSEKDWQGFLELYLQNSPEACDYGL
row,Structure (SMILES),inhibition
1,Cc1ccc2c(c1)c(=O)c1c3n2CCN(C(=O)CCl)C3CC1 (configuration not stated),57% (inactive)
2,Cc1ccc2c(c1)c1c3n2CCN(C(=O)CCl)C3CCC1 (configuration not stated),96%
3,COc1cccc(N(C(=O)CCl)C(C(=O)NCCc2ccccc2)c2cccs2)c1 (configuration not stated),75% (inactive)
4,N#CCCN(C(=O)CCl)c1cccc(Cl)c1,69% (inactive)
5,COc1ccc(C(C(=O)NC2CCCCC2)N(C(=O)CCl)c2cccc(Cl)c2)cc1 (configuration not stated),100%
6,Cc1ccc(NC(=O)Cc2nc(CCl)cs2)cc1,55% (inactive)
7,O=C(CCl)N1CCN(S(=O)(=O)c2ccc3ccccc3c2)CC1,100%
8,COc1cccc(-c2nc(CCl)cs2)c1,50% (inactive)
9,CC1CCCN(C(=O)CCl)C1 (configuration not stated),34% (inactive)
10,COc1ccc(C(CCN(Cc2ccc(OC)c(OC)c2)C(=O)CCl)c2ccccc2)cc1 (configuration not stated),100%
11,CCCCCCCN(C(=O)CCl)c1cccc(C)c1,58% (inactive)
12,CC(C)N(CC(=O)Nc1ccc(Cl)cc1C(F)(F)F)C(=O)CCl,7% (inactive)
13,O=C(NC1CCCCC1)C(c1cccnc1)N(C(=O)CCl)c1ccc(F)cc1 (configuration not stated),100%
14,O=C(NCCc1ccccc1)C(c1cccs1)N(C(=O)CCl)c1ccc(Cl)cc1 (configuration not stated),88% (inactive)
15,CN(C)C(=O)CN1CCN(C(=O)CCl)CC1,3% (inactive)
16,O=c1cc(CCl)nc(Cc2c(Cl)cccc2Cl)[nH]1,59% (inactive)
17,O=C(CCl)N1c2ccccc2OCC1c1ccccc1 (configuration not stated),37% (inactive)
18,Cc1nn(-c2ccccc2)c(Cl)c1CN(C(=O)CCl)c1cccc2ccccc12,34% (inactive)
19,COc1ccc(N(C(=O)CCl)C(C(=O)NCCc2ccccc2)c2cccs2)cc1Cl (configuration not stated),100%
20,O=Cc1[nH]c2ccccc2c1N(C(=O)CCl)c1ccc([N+](=O)[O-])cc1,75% (inactive)
21,O=C(CCl)N(c1ccc(Cl)cc1)c1c[nH]c2ccccc12,23% (inactive)
22,O=C(CCl)N(c1ccccc1)C1CCCCC1,24% (inactive)
23,CCOc1ccc(CN(C)C(=O)CCl)cc1,47% (inactive)
24,Cc1cccc(N(Cc2cc(=O)[nH]c3ccccc23)C(=O)CCl)c1,82% (inactive)

row,Structure (SMILES),inhibition
1,CN(Cc1ccc(Cl)cc1)C(=O)CCl,18% (inactive)
2,COc1ccc(N(C(=O)CCl)C(C(=O)NC2CCCCC2)c2cccnc2)cc1 (configuration not stated),97%
3,CC1CCN(C(=O)CCl)CC1,53% (inactive)
4,O=S(=O)(c1ccc(Cl)cc1)N1CCC2(CC1)CO2,94%
5,Cc1nn(-c2ccc(Cl)cc2)c2[nH]c(CCl)cc(=O)c12,26% (inactive)
6,O=C(NC1CCCCC1)C(c1cccnc1)N(C(=O)CCl)c1cccc(Cl)c1 (configuration not stated),100%
7,O=C(O)C1Cc2ccccc2CN1C(=O)CCl (configuration not stated),84% (inactive)
8,Cc1ccc(N(C(=O)CCl)C(C(=O)NC2CCCCC2)c2cccnc2)cc1C (configuration not stated),76% (inactive)
9,O=c1cc(CCl)nc2scc(-c3ccccc3)n12,22% (inactive)
10,C=CCOc1ccccc1CN(C(=O)CCl)c1ccc2c(c1)OCO2,35% (inactive)
11,CCCCCCCN(C(=O)CCl)c1ccccc1C,51% (inactive)
12,COc1ccc(N(C(=O)CCl)C(C(=O)NCCc2ccccc2)c2cccs2)cc1 (configuration not stated),86% (inactive)
13,O=C(CCl)N(CCc1ccccc1)CCc1ccccc1,57% (inactive)
14,CCc1ccc(-c2nc(CCl)cs2)cc1,40% (inactive)
15,O=C(CCl)N(C/C=C/c1ccccc1)c1ccc2c(c1)OCCO2,58% (inactive)
16,COC(=O)CC1C(=O)NC2CCCCC2N1C(=O)CCl (configuration not stated),0% (inactive)
17,CC1CCc2c(sc3nc(C(C)(C)C)nc(N4CCN(C(=O)CCl)CC4)c23)C1 (configuration not stated),48% (inactive)
18,CC(=O)n1cc(N(C(=O)CCl)c2ccccc2)c2ccccc21,0% (inactive)
19,O=C(CCl)N(Cc1cc(=O)[nH]c2ccccc12)c1ccccc1,38% (inactive)
20,CC(=O)n1cc(N(C(=O)CCl)c2ccc(Cl)cc2)c2ccccc21,38% (inactive)
21,CC(=O)n1cc(N(C(=O)CCl)c2ccc(C)cc2)c2ccccc21,70% (inactive)
22,CCC1(CC)Cc2ccccc2-c2nc(CCl)[nH]c(=O)c21,84% (inactive)
23,O=C(CCl)N1c2ccccc2SCC1c1ccccc1 (configuration not stated),65% (inactive)
24,Cc1ccc(N(Cc2cc(=O)[nH]c3ccccc23)C(=O)CCl)cc1,41% (inactive)

row,Structure (SMILES),inhibition
1,COc1ccc(C(C(=O)NC2CCCCC2)N(C(=O)CCl)c2ccc(C)cc2)cc1 (configuration not stated),82% (inactive)
2,CCCN(C(=O)CCl)C1=CCCCC1,0% (inactive)
3,CCC(C)N(CC(=O)Nc1cccc(C)c1C)C(=O)CCl (configuration not stated),26% (inactive)
4,COCCN(C(=O)CCl)C(C(=O)NC1CCCCC1)c1ccccc1C (configuration not stated),25% (inactive)
5,O=C(NC1CCCC1)C(c1ccc(F)cc1)N(Cc1ccccc1Cl)C(=O)CCl (configuration not stated),61% (inactive)
6,CN(Cc1ccc(Cl)s1)C(=O)CCl,83% (inactive)
7,CCCCCCN(C(=O)CCl)c1ccccc1,43% (inactive)
8,Cc1cccc(CN2CCN(C(=O)CCl)CC2)c1,90%
9,COc1cc2c(cc1OC)C(c1ccccc1)N(C(=O)CCl)CC2 (configuration not stated),81% (inactive)
10,CCOC(=O)N1CCN(C(=O)CCl)CC1,22% (inactive)
11,COc1ccc(C(C(=O)NC2CCCCC2)N(C(=O)CCl)c2ccc(Cl)cc2)cc1 (configuration not stated),100%
12,O=C(CCl)N(Cc1ccccc1)c1ccccc1,56% (inactive)
13,COC(CN(C(=O)CCl)C(C(=O)NC1CCCCC1)c1ccccc1C)OC (configuration not stated),0% (inactive)
14,COc1ccc(CN(CCC(c2ccccc2)c2ccc(OC(C)C)cc2)C(=O)CCl)cc1OC (configuration not stated),81% (inactive)
15,COc1ccc(N(Cc2cc(=O)[nH]c3ccccc23)C(=O)CCl)cc1,38% (inactive)
16,Cc1nn(-c2ccccc2)c(Cl)c1CN(C(=O)CCl)c1ccc(Cl)cc1,93%
17,COc1cc2c(cc1OC)C(c1cc(Br)ccc1F)N(C(=O)CCl)CC2 (configuration not stated),80% (inactive)
18,CC(C)CCn1c(=O)c2ccccc2n2c(CCl)nnc12,87% (inactive)
19,O=c1[nH]c(CCl)nc2cc(-c3ccc(F)cc3)sc12,100%
20,COc1ccccc1NS(=O)(=O)c1ccc2nc(CCl)[nH]c2c1,88% (inactive)
21,CCCCCn1c(=O)c2ccccc2n2c(CCl)nnc12,73% (inactive)
22,CCOC(=O)c1sc(N(Cc2ccccc2)C(=O)CCl)nc1C,82% (inactive)
23,O=c1cc(CCl)nc2sc3ccccc3n12,83% (inactive)
24,COC(=O)C1Cc2ccccc2CN1C(=O)CCl (configuration not stated),40% (inactive)
